The text below walks through data of ChEMBL document CHEMBL1155901, “Sialyl alpha(2-->3) lactose clusters using carbosilane dendrimer core scaffolds as influenza hemagglutinin blockers” (Bioorg Med Chem Lett, 2008).

Common to all, as to format: functional, organism-based
The test system of assay [1] is Influenza A virus H3N2. The experiment in a line: Inhibition of hemagglutinination in human influenza virus A/Aich/2/68 (H3N2) infected in bovine erythrocytes. The settings on record: Influenza A virus (A/Aichi/2/1968(H3N2)).
A further assay has as its system Influenza A virus. The experiment in a line: Inhibition of hemagglutinination in human influenza virus A/PR/8/34 (H1N1) infected in bovine erythrocytes. The settings on record: A/Puerto Rico/8/1934(H1N1).
For assay [2], the system named is Influenza A virus H3N2. Kind of assay: Inhibition of hemagglutinination in human influenza virus A/Memphis/1/71 (H3N2) infected in bovine erythrocytes. The settings on record: Influenza A virus (A/Memphis/1/1971(H3N2)).

Calls of active or inactive are those of the source. No cut-off for these calls is given here.

Regarding `CC(=O)N[C@H]1[C@H]([C@H](O)[C@H](O)CO)O[C@@](O[C@H]2[C@@H](O)[C@@H](CO)O[C@H](O[C@H]3[C@H](O)[C@@H](O)[C@H](OCCCCCSCCCCCC(=O)NCCC[Si](CCCNC(=O)CCCCCSCCCCCO[C@@H]4O[C@H](CO)[C@@H](O[C@H]5O[C@H](CO)[C@H](O)[C@H](O[C@]6(C(=O)O)C[C@H](O)[C@@H](NC(C)=O)[C@H]([C@H](O)[C@H](O)CO)O6)[C@H]5O)[C@H](O)[C@H]4O)(CCCNC(=O)CCCCCSCCCCCO[C@@H]4O[C@H](CO)[C@@H](O[C@H]5O[C@H](CO)[C@H](O)[C@H](O[C@]6(C(=O)O)C[C@H](O)[C@@H](NC(C)=O)[C@H]([C@H](O)[C@H](O)CO)O6)[C@H]5O)[C@H](O)[C@H]4O)CCCNC(=O)CCCCCSCCCCCO[C@@H]4O[C@H](CO)[C@@H](O[C@H]5O[C@H](CO)[C@H](O)[C@H](O[C@]6(C(=O)O)C[C@H](O)[C@@H](NC(C)=O)[C@H]([C@H](O)[C@H](O)CO)O6)[C@H]5O)[C@H](O)[C@H]4O)O[C@@H]3CO)[C@@H]2O)(C(=O)O)C[C@@H]1O`, the outcome with Influenza A virus H3N2 [1] and in the assay with Influenza A virus was Active.

On to `CC(=O)N[C@H]1[C@H]([C@H](O)[C@H](O)CO)O[C@@](O[C@H]2[C@@H](O)[C@@H](CO)O[C@H](O[C@H]3[C@H](O)[C@@H](O)[C@H](OCCCCCSCCC[Si](CCCSCCCCCO[C@@H]4O[C@H](CO)[C@@H](O[C@H]5O[C@H](CO)[C@H](O)[C@H](O[C@]6(C(=O)O)C[C@H](O)[C@@H](NC(C)=O)[C@H]([C@H](O)[C@H](O)CO)O6)[C@H]5O)[C@H](O)[C@H]4O)(CCCSCCCCCO[C@@H]4O[C@H](CO)[C@@H](O[C@H]5O[C@H](CO)[C@H](O)[C@H](O[C@]6(C(=O)O)C[C@H](O)[C@@H](NC(C)=O)[C@H]([C@H](O)[C@H](O)CO)O6)[C@H]5O)[C@H](O)[C@H]4O)CCC[Si](C)(C)CCC[Si](CCCSCCCCCO[C@@H]4O[C@H](CO)[C@@H](O[C@H]5O[C@H](CO)[C@H](O)[C@H](O[C@]6(C(=O)O)C[C@H](O)[C@@H](NC(C)=O)[C@H]([C@H](O)[C@H](O)CO)O6)[C@H]5O)[C@H](O)[C@H]4O)(CCCSCCCCCO[C@@H]4O[C@H](CO)[C@@H](O[C@H]5O[C@H](CO)[C@H](O)[C@H](O[C@]6(C(=O)O)C[C@H](O)[C@@H](NC(C)=O)[C@H]([C@H](O)[C@H](O)CO)O6)[C@H]5O)[C@H](O)[C@H]4O)CCCSCCCCCO[C@@H]4O[C@H](CO)[C@@H](O[C@H]5O[C@H](CO)[C@H](O)[C@H](O[C@]6(C(=O)O)C[C@H](O)[C@@H](NC(C)=O)[C@H]([C@H](O)[C@H](O)CO)O6)[C@H]5O)[C@H](O)[C@H]4O)O[C@@H]3CO)[C@@H]2O)(C(=O)O)C[C@@H]1O`, for which the outcome with Influenza A virus H3N2 [1] and with Influenza A virus was Active.

In the case of `C=CCCCO[C@@H]1O[C@H](CO)[C@@H](O[C@H]2O[C@H](CO)[C@H](O)[C@H](O[C@]3(C(=O)O)C[C@H](O)[C@@H](NC(C)=O)[C@H]([C@H](O)[C@H](O)CO)O3)[C@H]2O)[C@H](O)[C@H]1O`, the outcome in the assay with Influenza A virus H3N2 [1] and in the assay with Influenza A virus was Active.

In the case of `CC(=O)N[C@H]1[C@H]([C@H](O)[C@H](O)CO)O[C@@](O[C@H]2[C@@H](O)[C@@H](CO)O[C@H](O[C@H]3[C@H](O)[C@@H](O)[C@H](OCCCCCSCCC[Si](CCCSCCCCCO[C@@H]4O[C@H](CO)[C@@H](O[C@H]5O[C@H](CO)[C@H](O)[C@H](O[C@]6(C(=O)O)C[C@H](O)[C@@H](NC(C)=O)[C@H]([C@H](O)[C@H](O)CO)O6)[C@H]5O)[C@H](O)[C@H]4O)(CCCSCCCCCO[C@@H]4O[C@H](CO)[C@@H](O[C@H]5O[C@H](CO)[C@H](O)[C@H](O[C@]6(C(=O)O)C[C@H](O)[C@@H](NC(C)=O)[C@H]([C@H](O)[C@H](O)CO)O6)[C@H]5O)[C@H](O)[C@H]4O)c4ccccc4)O[C@@H]3CO)[C@@H]2O)(C(=O)O)C[C@@H]1O`, the result in the assay with Influenza A virus H3N2 [1] and in the assay on Influenza A virus was Active.

Turning to `CC(=O)N[C@H]1[C@H]([C@H](O)[C@H](O)CO)O[C@@](O[C@H]2[C@@H](O)[C@@H](CO)O[C@H](O[C@H]3[C@H](O)[C@@H](O)[C@H](OCCCCCSCCC[Si](CCCSCCCCCO[C@@H]4O[C@H](CO)[C@@H](O[C@H]5O[C@H](CO)[C@H](O)[C@H](O[C@]6(C(=O)O)C[C@H](O)[C@@H](NC(C)=O)[C@H]([C@H](O)[C@H](O)CO)O6)[C@H]5O)[C@H](O)[C@H]4O)(CCCSCCCCCO[C@@H]4O[C@H](CO)[C@@H](O[C@H]5O[C@H](CO)[C@H](O)[C@H](O[C@]6(C(=O)O)C[C@H](O)[C@@H](NC(C)=O)[C@H]([C@H](O)[C@H](O)CO)O6)[C@H]5O)[C@H](O)[C@H]4O)CCCSCCCCCO[C@@H]4O[C@H](CO)[C@@H](O[C@H]5O[C@H](CO)[C@H](O)[C@H](O[C@]6(C(=O)O)C[C@H](O)[C@@H](NC(C)=O)[C@H]([C@H](O)[C@H](O)CO)O6)[C@H]5O)[C@H](O)[C@H]4O)O[C@@H]3CO)[C@@H]2O)(C(=O)O)C[C@@H]1O`, the outcome in the assay on Influenza A virus H3N2 [1] and with Influenza A virus was Active.

Consider `CC(=O)N[C@H]1[C@H]([C@H](O)[C@H](O)CO)O[C@@](O[C@H]2[C@@H](O)[C@@H](CO)O[C@H](O[C@H]3[C@H](O)[C@@H](O)[C@H](OCCCCCSCCCCCC(=O)NCCC[Si](CCCNC(=O)CCCCCSCCCCCO[C@@H]4O[C@H](CO)[C@@H](O[C@H]5O[C@H](CO)[C@H](O)[C@H](O[C@]6(C(=O)O)C[C@H](O)[C@@H](NC(C)=O)[C@H]([C@H](O)[C@H](O)CO)O6)[C@H]5O)[C@H](O)[C@H]4O)(CCCNC(=O)CCCCCSCCCCCO[C@@H]4O[C@H](CO)[C@@H](O[C@H]5O[C@H](CO)[C@H](O)[C@H](O[C@]6(C(=O)O)C[C@H](O)[C@@H](NC(C)=O)[C@H]([C@H](O)[C@H](O)CO)O6)[C@H]5O)[C@H](O)[C@H]4O)c4ccccc4)O[C@@H]3CO)[C@@H]2O)(C(=O)O)C[C@@H]1O`, for which the outcome in the assay on Influenza A virus H3N2 [1] and in the assay with Influenza A virus was Active.

As to `CC(=O)N[C@H]1[C@H]([C@H](O)[C@H](O)CO)O[C@@](O[C@H]2[C@@H](O)[C@@H](CO)O[C@H](O[C@H]3[C@H](O)[C@@H](O)[C@H](OCCCCCSCCCCCC(=O)NCCC[Si](CCCNC(=O)CCCCCSCCCCCO[C@@H]4O[C@H](CO)[C@@H](O[C@H]5O[C@H](CO)[C@H](O)[C@H](O[C@]6(C(=O)O)C[C@H](O)[C@@H](NC(C)=O)[C@H]([C@H](O)[C@H](O)CO)O6)[C@H]5O)[C@H](O)[C@H]4O)(CCCNC(=O)CCCCCSCCCCCO[C@@H]4O[C@H](CO)[C@@H](O[C@H]5O[C@H](CO)[C@H](O)[C@H](O[C@]6(C(=O)O)C[C@H](O)[C@@H](NC(C)=O)[C@H]([C@H](O)[C@H](O)CO)O6)[C@H]5O)[C@H](O)[C@H]4O)CCC[Si](C)(C)CCC[Si](CCCNC(=O)CCCCCSCCCCCO[C@@H]4O[C@H](CO)[C@@H](O[C@H]5O[C@H](CO)[C@H](O)[C@H](O[C@]6(C(=O)O)C[C@H](O)[C@@H](NC(C)=O)[C@H]([C@H](O)[C@H](O)CO)O6)[C@H]5O)[C@H](O)[C@H]4O)(CCCNC(=O)CCCCCSCCCCCO[C@@H]4O[C@H](CO)[C@@H](O[C@H]5O[C@H](CO)[C@H](O)[C@H](O[C@]6(C(=O)O)C[C@H](O)[C@@H](NC(C)=O)[C@H]([C@H](O)[C@H](O)CO)O6)[C@H]5O)[C@H](O)[C@H]4O)CCCNC(=O)CCCCCSCCCCCO[C@@H]4O[C@H](CO)[C@@H](O[C@H]5O[C@H](CO)[C@H](O)[C@H](O[C@]6(C(=O)O)C[C@H](O)[C@@H](NC(C)=O)[C@H]([C@H](O)[C@H](O)CO)O6)[C@H]5O)[C@H](O)[C@H]4O)O[C@@H]3CO)[C@@H]2O)(C(=O)O)C[C@@H]1O`, the result in the assay on Influenza A virus H3N2 [1], in the assay on Influenza A virus H3N2 [2] and in the assay on Influenza A virus was Active.
